Common to all, as to assay type: functional
The target in test [1] is E3 ubiquitin-protein ligase Mdm2 (Homo sapiens, UniProt Q00987). The test is described as follows: MDM2-luc reporter signal enhancers, multi-concentration potency testing, MDM2 ubiquitin-protein ligase inhibitor program, whole-cell format, luminescence detection, 384-well microplate (AID 1394).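 Further: MDM2 E3 inhibitors raise luminescence so EC50 is for signal enhancement.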
Test [2] can be described thus: BioA aminotransferase inhibition, coupled fluorescent readout – biochemical, coupled fluorescence displacement, 20-point, dry powder, dose response (AID 743357).
The target of test [3] is T1, Carboxy-terminal domain RNA polymerase II polypeptide A small phosphatase 1 (Homo sapiens, UniProt Q9GZU7).
T1 sequence (Q9GZU7 whole entry): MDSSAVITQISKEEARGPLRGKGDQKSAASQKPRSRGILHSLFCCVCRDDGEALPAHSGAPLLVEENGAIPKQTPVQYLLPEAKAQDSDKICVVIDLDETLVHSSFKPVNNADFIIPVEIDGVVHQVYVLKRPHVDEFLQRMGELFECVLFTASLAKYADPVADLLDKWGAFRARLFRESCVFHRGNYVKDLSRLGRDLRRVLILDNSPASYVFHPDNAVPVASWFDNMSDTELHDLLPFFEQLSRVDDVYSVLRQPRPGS
Kind of test: CTDSP1 inhibitors, concentration-response, biochemical, absorbance readout, ultra-high-throughput screen actives (AID 540297).

A further test concerns the target Protein Tat (Human immunodeficiency virus type 1 group M subtype B (isolate HXB2)(HIV-1), UniProt P04608).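 Further: tat binding to TAR RNA read out by fluorescence polarization.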
A short description of test [4]: viability loss in THP-1 monocytes – THP-1 cells, cytotoxicity control for Vif-APOBEC3G degradation inhibitor project, dose response (AID 1117359). As to conditions: THP-1.
Test [5] concerns the target T2, Low molecular weight phosphotyrosine protein phosphatase (Homo sapiens, UniProt P24666).
T2 sequence (P24666 whole entry): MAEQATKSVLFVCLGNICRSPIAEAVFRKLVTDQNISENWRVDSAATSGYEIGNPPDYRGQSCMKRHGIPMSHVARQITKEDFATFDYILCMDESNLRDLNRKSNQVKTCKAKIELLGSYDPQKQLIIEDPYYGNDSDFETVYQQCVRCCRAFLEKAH
The test is described as follows: inhibition of LMPTP-A enzymatic activity – biochemical, OMFP substrate, fluorescence intensity, set 2, dose response (AID 743307).

Test [6] has as its target T2, Low molecular weight phosphotyrosine protein phosphatase. The test is described as follows: inhibition of human LMPTP enzyme activity – biochemical, absorbance, pNPP substrate, LMPTP-A isoform, set 2, orthogonal assay, dose response (AID 743308).

The source made the active and inactive calls.

Protein Tat, sequence (P04608 whole entry): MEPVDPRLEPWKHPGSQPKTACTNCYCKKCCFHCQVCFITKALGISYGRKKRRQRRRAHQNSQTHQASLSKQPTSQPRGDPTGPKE
E3 ubiquitin-protein ligase Mdm2, sequence (Q00987 whole entry): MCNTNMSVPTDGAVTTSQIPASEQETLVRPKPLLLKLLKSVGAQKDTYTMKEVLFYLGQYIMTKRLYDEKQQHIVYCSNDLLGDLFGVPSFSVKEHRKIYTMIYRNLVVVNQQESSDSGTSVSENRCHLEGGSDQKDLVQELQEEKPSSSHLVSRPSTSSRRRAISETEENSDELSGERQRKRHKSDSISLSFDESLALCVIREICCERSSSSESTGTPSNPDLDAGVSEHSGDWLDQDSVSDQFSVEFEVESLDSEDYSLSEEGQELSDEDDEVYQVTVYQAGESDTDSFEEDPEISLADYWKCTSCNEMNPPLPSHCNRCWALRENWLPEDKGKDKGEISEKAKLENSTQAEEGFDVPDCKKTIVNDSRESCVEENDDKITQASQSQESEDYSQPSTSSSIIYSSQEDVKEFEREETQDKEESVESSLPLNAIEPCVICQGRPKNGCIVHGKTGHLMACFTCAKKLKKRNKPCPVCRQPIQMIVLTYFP

`CCN(CC)C(=O)CN1CCN(c2ncccn2)CC1`: the EC50 in test [1] was 16.1 µM (not active). In the case of `CC(=O)c1ccc(N2CCN(C(=O)c3cc(Cl)c4c(c3)OCO4)CC2)cc1`, the AC50 in test [2] was 12.2 µM (active). As for `CN(CC(=O)Nc1ccc(F)cc1)C(=O)c1cc(-c2ccco2)nc2ccccc12`, the values for the IC50 (in test [3]; at Protein Tat) were 5.11 µM (active) and > 100 µM (active), respectively. Further, the CC50 in test [4] is > 40 µM (active).

For the compound `CN1CCN(c2nc(-c3ccccc3)nc3ccccc23)CC1`, the IC50 in test [5] and in test [6] was > 80 µM (inactive) each time.

As a reminder, the EC50 is the concentration at which the effect is half-maximal. As usually defined, the AC50 is the concentration giving half of the maximal activity seen. For orientation: IC50 means the concentration that gives 50% inhibition. In general, CC50 refers to the concentration that lowers cell viability or growth by half.

These data come from ChEMBL document CHEMBL1201862, “PubChem BioAssay data set” (2004).
